What was measured:
hr 5-HT2C = target: T1, hr 5-HT2C (Homo sapiens, UniProt P28335); experiment: receptor profile (Table S4); assay type: binding
T1 sequence (P28335 33-458): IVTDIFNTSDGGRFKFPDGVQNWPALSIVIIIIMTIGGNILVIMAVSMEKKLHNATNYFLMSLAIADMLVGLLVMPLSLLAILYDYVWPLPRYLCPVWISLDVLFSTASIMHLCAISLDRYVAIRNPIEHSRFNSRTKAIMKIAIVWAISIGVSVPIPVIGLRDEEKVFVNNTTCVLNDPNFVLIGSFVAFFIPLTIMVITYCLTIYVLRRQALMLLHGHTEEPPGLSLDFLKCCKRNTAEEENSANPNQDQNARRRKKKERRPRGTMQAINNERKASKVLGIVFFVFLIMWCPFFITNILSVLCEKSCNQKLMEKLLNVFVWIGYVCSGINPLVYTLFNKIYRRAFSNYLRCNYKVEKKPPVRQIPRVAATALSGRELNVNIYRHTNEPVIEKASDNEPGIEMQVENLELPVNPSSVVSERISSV

hr M2 ag = target: T2, hr M2 ag (Homo sapiens, UniProt P08172); experiment: receptor profile (Table S4); assay type: biochemical
T2 sequence (P08172 1-466): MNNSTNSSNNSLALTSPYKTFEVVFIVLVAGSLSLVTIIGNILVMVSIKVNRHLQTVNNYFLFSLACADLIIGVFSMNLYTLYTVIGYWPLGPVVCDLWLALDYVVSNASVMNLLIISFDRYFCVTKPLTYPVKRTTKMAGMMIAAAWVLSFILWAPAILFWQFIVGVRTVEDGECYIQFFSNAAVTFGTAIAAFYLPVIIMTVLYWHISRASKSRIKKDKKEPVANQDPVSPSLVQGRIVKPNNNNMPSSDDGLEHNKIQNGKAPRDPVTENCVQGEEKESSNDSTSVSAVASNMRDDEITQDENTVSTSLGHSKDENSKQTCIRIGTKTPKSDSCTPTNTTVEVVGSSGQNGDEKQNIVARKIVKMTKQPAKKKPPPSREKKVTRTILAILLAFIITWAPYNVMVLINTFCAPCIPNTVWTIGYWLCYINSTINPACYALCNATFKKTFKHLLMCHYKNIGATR

hr M3 = hr M3 (Homo sapiens, UniProt P20309); experiment: receptor profile (Table S4); assay type: binding
L. major = experiment: BALB/c mouse lesion cure model of Old World cutaneous leishmaniasis; assay type: in vivo; conditions: BALB/c mice infected with L. major; 20 mg/kg b.i.d. PO, 10 days
Description: Data in the graph show progression of lesion sizes at the base of the tail of BALB/c mice infected with 1 × 10^7L. major parasites after 10 days of treatment. Experimental time points represent the mean lesion sizes ± SEM (n = 6). Single-factor ANOVA (Dunnet’s test) was used to determine the statistical significance of differences in lesion sizes between vehicle and compound-treated groups (P < 0.05).
Lesion cure model of Old World leishmaniasis (L. major). Female BALB/c mice (6 weeks old) were
used in this model. Mice were infected intradermally at base of the tail with 100 µl parasite culture
containing 1x107 L. major MHOM/IR/-/173 stationary phase promastigotes. Starting from the third week
post-infection, the lesion induration diameters (length=D1 and width=D2) were measured using a caliper
instrument (Fisher Scientific, USA) with 0.1 mm sensitivity. Length and width measurements were taken to account for asymmetrical lesions. Lesion size area was then calculated using the πR1*R2 formula
(where R1=D1/2 and R2 = D2/2). Lesions were measured at a 10 -day (+/- 2 days) interval until the end
of the study. Experimental endpoint is lesion cure or % lesion size re duction relative to lesion size in
vehicle-treated group. Lesion cure is considered 100% re-epithelialization of the lesion (lesion size = 0
10 mg/kg and 20 mg/kg twice-daily). In a positive control treatment group, animals were dosed by […]

in vivo = conditions: male, Sprague-Dawley, rat
hr Al1A ag = target: T3, hr Al1A ag (Homo sapiens, UniProt P35348); experiment: receptor profile (Table S4); assay type: biochemical
T3 sequence (P35348 1-466): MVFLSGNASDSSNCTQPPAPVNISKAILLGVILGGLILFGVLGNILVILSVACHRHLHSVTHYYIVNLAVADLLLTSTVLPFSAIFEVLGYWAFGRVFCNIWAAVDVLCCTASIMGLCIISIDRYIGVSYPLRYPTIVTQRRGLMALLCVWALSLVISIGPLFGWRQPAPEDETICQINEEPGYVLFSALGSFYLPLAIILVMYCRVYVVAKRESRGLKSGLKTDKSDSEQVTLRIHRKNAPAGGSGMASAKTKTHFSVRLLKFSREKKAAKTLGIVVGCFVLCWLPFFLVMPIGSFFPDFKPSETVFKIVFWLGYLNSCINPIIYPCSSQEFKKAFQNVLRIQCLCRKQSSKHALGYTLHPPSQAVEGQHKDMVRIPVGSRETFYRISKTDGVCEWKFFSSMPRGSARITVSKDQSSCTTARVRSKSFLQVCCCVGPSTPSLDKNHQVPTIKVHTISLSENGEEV

hr Al2A ag = target: T4, hr Al2A ag (Homo sapiens, UniProt P08913); experiment: receptor profile (Table S4); assay type: biochemical
T4 sequence (P08913 1-465): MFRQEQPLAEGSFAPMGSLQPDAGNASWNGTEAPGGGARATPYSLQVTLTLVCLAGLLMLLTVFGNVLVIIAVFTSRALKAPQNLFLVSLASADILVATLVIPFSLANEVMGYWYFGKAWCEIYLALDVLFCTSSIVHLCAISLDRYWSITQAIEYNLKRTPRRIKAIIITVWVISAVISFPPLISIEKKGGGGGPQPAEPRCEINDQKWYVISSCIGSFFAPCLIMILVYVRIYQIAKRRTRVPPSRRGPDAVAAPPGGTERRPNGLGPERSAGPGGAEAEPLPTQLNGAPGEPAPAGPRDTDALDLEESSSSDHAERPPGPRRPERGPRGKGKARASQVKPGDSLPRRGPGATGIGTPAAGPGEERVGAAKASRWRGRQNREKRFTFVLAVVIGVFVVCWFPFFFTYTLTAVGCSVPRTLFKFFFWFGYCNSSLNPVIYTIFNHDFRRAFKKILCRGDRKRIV

hr Alpha2C = target: T5, hr Alpha2C (Homo sapiens, UniProt P18825); experiment: receptor profile (Table S4); assay type: binding
T5 sequence (P18825 1-462): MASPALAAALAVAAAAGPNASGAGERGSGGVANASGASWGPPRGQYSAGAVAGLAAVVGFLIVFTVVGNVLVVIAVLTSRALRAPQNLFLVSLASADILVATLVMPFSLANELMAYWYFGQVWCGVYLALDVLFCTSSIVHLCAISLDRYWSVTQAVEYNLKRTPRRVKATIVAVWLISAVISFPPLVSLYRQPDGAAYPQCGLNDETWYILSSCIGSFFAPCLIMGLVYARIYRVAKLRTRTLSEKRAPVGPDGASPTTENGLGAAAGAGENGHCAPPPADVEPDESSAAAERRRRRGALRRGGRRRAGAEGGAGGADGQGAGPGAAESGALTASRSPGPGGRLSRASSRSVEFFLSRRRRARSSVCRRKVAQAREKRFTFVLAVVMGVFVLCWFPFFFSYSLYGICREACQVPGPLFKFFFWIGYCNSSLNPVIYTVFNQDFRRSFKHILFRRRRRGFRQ

hr M3, sequence (P20309 whole entry): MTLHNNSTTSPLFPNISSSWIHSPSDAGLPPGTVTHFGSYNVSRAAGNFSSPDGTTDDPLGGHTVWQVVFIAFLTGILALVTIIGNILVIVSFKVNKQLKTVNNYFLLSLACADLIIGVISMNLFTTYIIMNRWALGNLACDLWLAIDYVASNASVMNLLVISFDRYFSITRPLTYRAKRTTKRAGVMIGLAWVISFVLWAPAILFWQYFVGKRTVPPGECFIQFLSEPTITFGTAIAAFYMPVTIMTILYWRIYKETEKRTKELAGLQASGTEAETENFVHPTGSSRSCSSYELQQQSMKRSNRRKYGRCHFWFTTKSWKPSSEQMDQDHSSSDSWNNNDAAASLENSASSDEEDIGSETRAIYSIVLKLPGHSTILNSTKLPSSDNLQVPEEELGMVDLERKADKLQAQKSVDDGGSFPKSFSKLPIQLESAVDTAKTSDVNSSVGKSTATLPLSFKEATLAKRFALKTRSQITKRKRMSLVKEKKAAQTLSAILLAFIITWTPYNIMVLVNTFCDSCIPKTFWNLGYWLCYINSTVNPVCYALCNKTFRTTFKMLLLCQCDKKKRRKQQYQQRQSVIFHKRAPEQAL

With `Cc1nc(C)c(C(=O)Nc2ccc(F)c(-c3nc4ncc(-c5ncccc5C)cn4n3)c2)o1` [compound 1, N-(4-Fluoro-3-(6-(3-methylpyridin-2-yl)-[1,2,4]triazolo[1,5-a]pyrimidin-2-yl)phenyl)-2,4-dimethyloxazole-5-carboxamide] the EC50/IC50 (hr 5-HT2C; hr 5-HT2C) was greater than 30 µM, the inhibition at 10 µM (hr 5-HT2C; read-out: % inh/act @ 10 µM) was 9% and the inhibition at 30 µM (hr 5-HT2C; read-out: % inh/act @ 30 µM) was 8%. The EC50/IC50 (hr M2 ag; hr M2 ag) was greater than 30 µM, the inhibition at 10 µM (hr M2 ag; read-out: % inh/act @ 10 µM) was 0% and the inhibition at 30 µM (hr M2 ag; read-out: % inh/act @ 30 µM) was 1%. The EC50/IC50 (hr M3; hr M3) was greater than 30 µM, the inhibition at 10 µM (hr M3; read-out: % inh/act @ 10 µM) was 17% and the inhibition at 30 µM (hr M3; read-out: % inh/act @ 30 µM) was 25%. For the same compound, the “therapeutic effect on skin lesions” value (L. major) was “comparable to that of liposomal amphotericin B”, the clearance (in vivo; in vivo, iv, 3 mg/kg) was 2.1 mL/min/kg and the MRT (in vivo; plasma, iv, 3 mg/kg) was 4.3 h. It also gave a Vd (in vivo; plasma, iv, 3 mg/kg) of 0.53 L/kg, a half-life (in vivo; plasma, iv, 3 mg/kg) of 3.8 h and a bioavailability (in vivo; plasma, po, 10 mg/kg) of 67%. For the same compound, the EC50/IC50 (hr Al1A ag; hr Al1A ag) was greater than 30 µM, the inhibition at 10 µM (hr Al1A ag; read-out: % inh/act @ 10 µM) was 0% and the inhibition at 30 µM (hr Al1A ag; read-out: % inh/act @ 30 µM) was 1%. For the same compound, the EC50/IC50 (hr Al2A ag; hr Al2A ag) was greater than 30 µM, the inhibition at 10 µM (hr Al2A ag; read-out: % inh/act @ 10 µM) was 0% and the inhibition at 30 µM (hr Al2A ag; read-out: % inh/act @ 30 µM) was 0%. It also gave an EC50/IC50 (hr Alpha2C; hr Alpha2C) greater than 30 µM, an inhibition at 10 µM (hr Alpha2C; read-out: % inh/act @ 10 µM) of 13% and an inhibition at 30 µM (hr Alpha2C; read-out: % inh/act @ 30 µM) of 32%. For the same compound, the “% inh/act @ 10 µM” value (hr GABAA antag) was -5% and the “% inh/act @ 30 µM” value (hr GABAA antag) was -4%.
